Consider 1 compound from publication PMC10657792, “Downstream Allosteric Modulation of NMDA Receptors by 3-Benzazepine Derivatives” (Molecular Neurobiology, 2023).

The term IC50 denotes the point on the concentration scale where inhibition reaches its midpoint. One may read the Hill coefficient as a measure of the steepness of the concentration-response curve. Usually solubility stands for the concentration that dissolves in the medium under given conditions. Read a low solubility as a poorly soluble substance. In general, inhibition refers to the relative decrease from the control value, in per cent.

In brackets after ≈: the same amount, converted by molar mass. Several values for one entry are separate records, joined by “and”; a condition that tells them apart may be missing. Identical values can stand only once.

For data set [1], the target named is GluN1a wt/ GluN2B Q110A (Rattus norvegicus, UniProt P35439+Q00960, Q110A). Kind of data set: TEVC recording in X. laevis oocytes, GluN2B mutant screening. It counts as cell-based. The following applies: fitted curve.
In data set [2] the target is GluN1b wt/ GluN2B wt (Rattus norvegicus, UniProt P35439+Q00960). Kind of data set: TEVC recording in X. laevis oocytes in the presence of agonists and 200 µM spermine. It counts as cell-based. Conditions: agonists + 200 µM spermine; fitted curve. Here is the method: (§1) The NMDAR was expressed in stage V and VI oocytes originated from X. laevis. Oocytes were provided by Ecocyte Bioscience (Dortmund, Germany), and equimolar amounts of wild-type and mutated GluN1 and GluN2B cRNA were injected (0.8 ng each). The oocytes were incubated in Barth’s solution, containing (mmol l^−1): 88 NaCl, 1 KCl, 0.4 CaCl2, 0.33 Ca(NO3)2, 0.6 MgSO4, 5 TRIS–HCl, 2.4 NaHCO3, supplemented with 80 mg l^−1 theophylline, 63 mg l^−1 benzylpenicillin, 40 mg l^−1 streptomycin, and 100 mg l^−1 gentamycin and maintained at 18 °C until usage. After injection, the oocytes were incubated for 5 days at 18 °C. Subsequently, the activity of the expressed NMDARs in the oocytes was recorded by two-electrode voltage clamp (TEVC).
(§2) The compounds were retrieved as 10 mM stock solutions in DMSO and were subsequently diluted with agonist solution and adjusted to 0.1% DMSO concentration. Inhibition of each compound was measured via TEVC in X. laevis oocytes at room temperature using a Turbo Tec 10CX amplifier (NPI electronic, Tamm, Germany), NI USB 6221 DA/AD Interface (National Instruments, Austin, USA), and GePulse Software (Dr. Michael Pusch, Genova, Italy). Ba^2+-Ringer, consisting of 10 mM HEPES, 90 mM NaCl, 1 mM KCl, and 1.5 mM BaCl2, adjusted to pH 7.4, was used for TEVC measurements. Agonist solution containing 10 µM glycine and 10 µM (S)-glutamate was prepared in Ba^2+-Ringer, and the measurements were performed at a holding potential of − 70 mV, using electrodes with a glass capillary filled with 3 M KCl and a resistance between 0.5 and 1.5 MΩ. […] Example traces for all recorded conditions can be found in Supplementary Figs. S2–S9.
(§3) TEVC data were analyzed using Ana (Dr. Michael Pusch, Genova, Italy), and statistics were performed using OriginPro 2020 (OriginLab Corporation, Northampton, USA). The inhibitory effect of each compound is calculated using the following equation: inhibition=1-Ic-Ih/Ia-Ih where Ih describes the current in the absence of agonists; Ia represents the steady-state current in the presence of the agonists; and Ic is defined as the steady-state after binding of agonist and compound. […] Data were statistically analyzed by one-way ANOVA and Tukey post-hoc mean comparison test in OriginPro 2020 (OriginLab Corporation, Northampton, USA). p values are indicated by * for p < 0.05, ** for p < 0.01, and *** for p < 0.001.
(§4) The NMDAR is probably modulated by polyamines such as spermine and spermidine in a similar way to exon 5 [22]. As described above, we recorded GluN1-1a/GluN2B and GluN1-1b/GluN2B expressing oocytes with 200 µM spermine and ascending concentrations of (R)-OF-NB1, to examine if the allosteric effects are mechanically in conjunction or can be potentiated. […]

The target in data set [3] is GluN1a wt/ GluN2B wt (Rattus norvegicus, UniProt P35439+Q00960). Described as above. It counts as cell-based. The following applies: agonists + 200 µM spermine; fitted curve. Here is the method:
as §1, §2, §3, §4

A short description of data set [4]: Solubility limit in TEVC compound solution. It counts as physicochemical. The following applies: higher concentrations could not be tested in TEVC.
The target in data set [5] is GluN1a wt/ GluN2B N192A/F194A (Rattus norvegicus, UniProt P35439+Q00960, F194A/N192A). Put plainly: TEVC recording in X. laevis oocytes, GluN2B mutant screening. It counts as cell-based.
GluN1a wt/ GluN2B N192A/F194A, sequence (Q00960 27-1482 N192A/F194A, other chains not shown): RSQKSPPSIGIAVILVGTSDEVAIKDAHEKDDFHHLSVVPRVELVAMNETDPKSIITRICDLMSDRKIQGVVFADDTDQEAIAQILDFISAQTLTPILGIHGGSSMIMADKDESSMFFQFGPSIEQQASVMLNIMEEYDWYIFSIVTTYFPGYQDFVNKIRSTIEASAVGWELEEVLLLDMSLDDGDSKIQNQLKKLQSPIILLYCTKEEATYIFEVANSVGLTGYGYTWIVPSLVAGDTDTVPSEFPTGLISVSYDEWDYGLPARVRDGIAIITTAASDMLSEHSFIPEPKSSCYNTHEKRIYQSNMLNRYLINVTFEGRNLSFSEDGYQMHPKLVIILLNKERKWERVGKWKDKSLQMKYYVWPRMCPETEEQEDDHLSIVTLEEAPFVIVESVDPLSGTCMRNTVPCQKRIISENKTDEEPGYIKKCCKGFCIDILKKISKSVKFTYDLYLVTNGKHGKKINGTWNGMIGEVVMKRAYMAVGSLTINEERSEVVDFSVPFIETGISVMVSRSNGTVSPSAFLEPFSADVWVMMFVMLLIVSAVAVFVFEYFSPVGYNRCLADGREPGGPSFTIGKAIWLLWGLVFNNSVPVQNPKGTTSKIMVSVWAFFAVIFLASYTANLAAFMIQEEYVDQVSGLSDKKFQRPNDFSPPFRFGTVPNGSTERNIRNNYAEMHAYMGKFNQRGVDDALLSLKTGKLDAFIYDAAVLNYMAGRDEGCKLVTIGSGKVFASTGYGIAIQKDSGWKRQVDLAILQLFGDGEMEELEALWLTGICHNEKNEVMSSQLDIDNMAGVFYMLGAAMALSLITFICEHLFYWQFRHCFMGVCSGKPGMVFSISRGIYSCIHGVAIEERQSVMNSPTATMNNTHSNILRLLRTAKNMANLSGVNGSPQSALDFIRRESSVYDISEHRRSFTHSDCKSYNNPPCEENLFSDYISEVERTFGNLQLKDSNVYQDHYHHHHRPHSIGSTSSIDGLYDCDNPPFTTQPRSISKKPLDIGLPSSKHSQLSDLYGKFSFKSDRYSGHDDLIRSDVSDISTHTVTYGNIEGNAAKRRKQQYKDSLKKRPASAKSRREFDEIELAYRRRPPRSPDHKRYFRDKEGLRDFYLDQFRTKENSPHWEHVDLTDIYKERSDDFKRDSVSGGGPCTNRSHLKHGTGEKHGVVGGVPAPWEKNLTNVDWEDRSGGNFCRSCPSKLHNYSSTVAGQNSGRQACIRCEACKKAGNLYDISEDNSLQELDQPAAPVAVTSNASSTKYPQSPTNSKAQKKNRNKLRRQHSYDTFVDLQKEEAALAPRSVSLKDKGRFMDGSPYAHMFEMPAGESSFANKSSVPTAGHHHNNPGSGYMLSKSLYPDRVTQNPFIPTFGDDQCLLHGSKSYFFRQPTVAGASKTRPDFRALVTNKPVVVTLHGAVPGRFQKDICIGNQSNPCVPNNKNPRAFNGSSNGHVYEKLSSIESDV

GluN1a wt/ GluN2B wt, sequence (Q00960 27-1482, other chains not shown): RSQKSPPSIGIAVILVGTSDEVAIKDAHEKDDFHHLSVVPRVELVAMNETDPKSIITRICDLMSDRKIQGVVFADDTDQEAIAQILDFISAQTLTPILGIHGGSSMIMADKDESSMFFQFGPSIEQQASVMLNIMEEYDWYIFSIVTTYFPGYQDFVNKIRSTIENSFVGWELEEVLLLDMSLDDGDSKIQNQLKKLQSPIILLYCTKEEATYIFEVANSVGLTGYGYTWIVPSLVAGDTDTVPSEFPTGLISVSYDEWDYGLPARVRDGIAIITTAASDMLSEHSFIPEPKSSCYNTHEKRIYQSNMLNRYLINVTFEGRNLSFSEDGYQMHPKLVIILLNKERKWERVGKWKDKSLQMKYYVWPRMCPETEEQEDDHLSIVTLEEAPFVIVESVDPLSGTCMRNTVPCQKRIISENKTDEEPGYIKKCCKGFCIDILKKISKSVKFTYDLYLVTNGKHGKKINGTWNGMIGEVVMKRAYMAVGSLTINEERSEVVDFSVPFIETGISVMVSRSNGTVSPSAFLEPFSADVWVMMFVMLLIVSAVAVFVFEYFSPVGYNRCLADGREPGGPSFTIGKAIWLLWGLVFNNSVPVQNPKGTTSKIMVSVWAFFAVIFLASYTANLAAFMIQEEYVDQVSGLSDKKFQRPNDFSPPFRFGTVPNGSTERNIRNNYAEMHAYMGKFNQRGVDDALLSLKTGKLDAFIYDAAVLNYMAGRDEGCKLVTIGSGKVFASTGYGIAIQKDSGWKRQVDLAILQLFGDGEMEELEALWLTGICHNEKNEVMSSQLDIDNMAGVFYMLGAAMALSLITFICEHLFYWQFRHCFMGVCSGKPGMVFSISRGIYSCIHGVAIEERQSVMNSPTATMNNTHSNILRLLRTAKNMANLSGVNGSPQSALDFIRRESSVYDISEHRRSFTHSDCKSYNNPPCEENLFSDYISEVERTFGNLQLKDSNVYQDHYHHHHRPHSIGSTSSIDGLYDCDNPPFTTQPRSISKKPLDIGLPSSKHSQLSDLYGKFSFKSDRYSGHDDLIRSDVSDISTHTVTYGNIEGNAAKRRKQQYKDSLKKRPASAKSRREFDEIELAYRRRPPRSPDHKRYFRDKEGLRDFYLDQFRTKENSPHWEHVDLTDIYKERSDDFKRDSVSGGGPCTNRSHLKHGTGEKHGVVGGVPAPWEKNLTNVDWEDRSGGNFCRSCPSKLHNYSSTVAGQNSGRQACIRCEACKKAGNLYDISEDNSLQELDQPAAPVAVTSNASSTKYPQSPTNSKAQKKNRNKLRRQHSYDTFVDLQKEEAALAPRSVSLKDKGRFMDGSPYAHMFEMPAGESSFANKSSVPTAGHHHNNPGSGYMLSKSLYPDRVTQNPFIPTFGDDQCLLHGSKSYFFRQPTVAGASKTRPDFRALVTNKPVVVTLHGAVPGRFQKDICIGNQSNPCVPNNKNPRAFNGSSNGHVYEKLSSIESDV
GluN1b wt/ GluN2B wt, sequence (Q00960 27-1482, other chains not shown): as above

Consider `Oc1ccc2c(c1)CCN(CCCCc1ccccc1F)C[C@@H]2O` [(R)-OF-NB1], for which the half-inhibitory concentration (IC50) in data set [1] (agonists 10 µM glycine + 10 µM (S)-glutamate) was 210 nM; in data set [2], 522 nM; in data set [3], 359 nM. Moreover, the Hill coefficient in data set [1] is given as 5.4; in data set [2], 1.8; in data set [3], 1.4; in data set [5] (fitted curve) it was 0.3. Further, the concentration in solution in data set [4] (solubility) came to 30 µM (≈ 9.88 µg/mL). Testing at 1 µM in data set [5] (GluN1-1a GluN2B N192A/F194A, compound concentration 1 μM, single oocytes) gave an inhibition of 30.7%. The “inhibition (%)” value in data set [5] (GluN1-1a GluN2B N192A/F194A, compound concentration 1 μM, single oocytes, 1 µM) was 27.3896% and 29.45% and 20.653%; in data set [5] (GluN1-1a GluN2B N192A/F194A, compound concentration 10 μM, single oocytes, 10 µM), 48.3548% and 37.2275% and 43.7739% and 28.318%; in data set [5] (GluN1-1a GluN2B N192A/F194A, compound concentration 30 μM, single oocytes, 30 µM), 42.6495% and 45.6455% and 35.2023%. For the same compound, in data set [5] (GluN1-1a GluN2B N192A/F194A, compound concentration 30 μM, single oocytes), the inhibition at 30 µM worked out at 50.8%.
